Results published in ChEMBL document CHEMBL1914350, “Convolutamines I and J, antitrypanosomal alkaloids from the bryozoan Amathia tortusa” (Bioorg Med Chem, 2011).
In brackets after ≈: the same amount, converted by molar mass.

Assays:
P388 = experiment: Cytotoxicity against mouse P388 cells; assay type: functional, cell-based
HEK293 [1] = experiment: Cytotoxicity against human HEK293 cells after 48 hrs by alamar blue assay; assay type: cell-based; conditions: HEK293, 48 h
[2] = Selectivity index, ratio of IC50 for human HEK293 cells to IC50 for Trypanosoma brucei brucei; assay type: toxicity, cell-based; conditions: HEK293 cells versus Trypanosoma brucei brucei, read-out: Ratio IC50
[3] = Lipophilicity, log P of the compound; assay type: physicochemical; conditions: octanol/water
[4] = test system: Trypanosoma brucei brucei; experiment: Antitrypanosomal activity against Trypanosoma brucei brucei after 48 hrs by alamar blue assay; assay type: functional, organism-based
Haemonchus contortus = experiment: Antiparasitic activity against Haemonchus contortus assessed as inhibition of free-living larval stage; assay type: functional
HEK293 [5] = experiment: Cytotoxicity against human HEK293 cells at 41 uM after 48 hrs by alamar blue assay; assay type: cell-based; conditions: hek293, 48 h
[6] = Antimitotic activity in sea urchins assessed as inhibition of fertilized egg cell division; assay type: functional, Echinoidea
HEK293 [7] = experiment: Cytotoxicity against human HEK293 cells at 70 uM after 48 hrs by alamar blue assay; assay type: cell-based; conditions: hek293, 48 h

COc1ccc(Br)c(CCN(C)CC(C)O)c1Br (stereo unspecified) [CONVOLUTAMINE B]
IC50 (P388): 1.4 µg/mL (≈ 3.67 µM)

COc1c(Br)cc(Br)c(CCNCCCN(C)C)c1Br [CONVOLUTAMINE I]
IC50 (HEK293 [1]): 22 µM | selectivity ratio [2]: 18.3 | logP [3]: 4.1 | IC50 [4]: 1.1 µM

CNCCc1c(Br)c(Br)c(Br)c(OC)c1OC [CONVOLUTAMINE H]
LD99 (Haemonchus contortus): 0.2 µg/mL

COc1c(Br)cc(Br)c(CCN2C=[N+](C)CCC2)c1Br [CONVOLUTAMINE J]
Activity (HEK293 [5]): Non-toxic | logP [3]: 3.9 | IC50 [4]: 13.7 µM

CNCCc1c(Br)cc(Br)c(OC)c1Br [CONVOLUTAMINE F]
IC50 [6]: 81 µg/mL (≈ 202 µM)

N=C(N)c1ccc(OCCCCCOc2ccc(C(=N)N)cc2)cc1 [PENTAMIDINE]
IC50 (HEK293 [1]): 71 µM | IC50 [4]: 0.0151 µM

COc1c(Br)cc(Br)c(CCN2COC(C)C2)c1Br (stereo unspecified) [CONVOLUTAMINE D]
IC50 (P388): 1.4 µg/mL (≈ 3.06 µM)

N=C(N)c1ccc(/N=N/Nc2ccc(C(=N)N)cc2)cc1 [DIMINAZENE]
Activity (HEK293 [7]): Non-toxic | IC50 [4]: 0.0701 µM

COc1c(Br)cc(Br)c(CCN(C)CC(C)O)c1Br (stereo unspecified) [CONVOLUTAMINE A]
IC50 (P388): 1.4 µg/mL (≈ 3.04 µM)
